Source: patent US20090326072A1, “USE OF 2-(2-NITRO-4-TRIFLUOROMETHYLBENZOYL)-l,3- CYCLOHEXANEDIONE IN THE TREATMENT OF PARKINSON'S DISEASE” (priority 2005, published 2009)
Entries after “also recorded” stand apart in the source; their conditions may differ. Read-outs that look alike come from different tables or passages of the source.

Columns and labels:
[1] = biological target: T1, 4-hydroxyphenyl pyruvate dioxygenase (HPPD) (Rattus norvegicus, UniProt P32755); experiment: Determination of 4-hydroxyphenyl pyruvate dioxygenase (HPPD) enzyme activity in vitro (rate of oxygen consumption, rat liver cytosol); type: biochemical; settings: for inhibition at 0.1 µM: read-out: % Inhibition at 100 nM; for inhibition at 0.3 µM: read-out: % inhibition at 300 nM
T1 construct: rat liver cytosol (2.7 mg of protein/ml incubate); from tissue; host or cells: rat liver (cytosol, 110,000 g supernatant)
T1 sequence (P32755 whole entry): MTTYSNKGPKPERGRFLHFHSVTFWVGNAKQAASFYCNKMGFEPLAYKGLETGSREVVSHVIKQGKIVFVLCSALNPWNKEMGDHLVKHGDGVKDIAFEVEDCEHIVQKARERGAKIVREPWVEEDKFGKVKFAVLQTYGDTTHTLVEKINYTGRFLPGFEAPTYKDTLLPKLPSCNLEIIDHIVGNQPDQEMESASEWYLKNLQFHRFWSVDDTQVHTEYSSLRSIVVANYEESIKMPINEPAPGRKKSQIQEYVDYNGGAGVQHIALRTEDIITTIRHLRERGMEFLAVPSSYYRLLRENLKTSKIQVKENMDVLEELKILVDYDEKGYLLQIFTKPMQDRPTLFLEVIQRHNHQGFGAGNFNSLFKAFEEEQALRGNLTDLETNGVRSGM
Method: The principle of the assay is that 4-hydroxyphenyl pyruvate dioxygenase (HPPD), an enzyme that participates in the catabolism of tyrosine, catalyses the oxidative decarboxylation and rearrangement of 4-hydroxyphenylpyruvate (HPPA) to homogentisate, with the incorporation of both atoms of molecular oxygen into the product.
Rat liver was homogenised in buffer of the following composition; 0.25 M Sucrose, 5.4 mM EDTA, 20 mM Tris base, pH 7.4, (25% homogenate) using 6 passes of a Potter type homogeniser. The homogenate was then centrifuged at 1,800 g for 10 minutes at 4° C., the pellet was discarded and the supernatant centrifuged at 17,000 g for a further 15 minutes at 4° C. The pellet was then discarded and the supernatant centrifuged at 110,000 g for 80 minutes at 4° C. The supernatant containing the HPPD enzyme from this 110,000 g spin was collected and stored frozen at −70° C. and used in the assays of the test compounds (see below).
Prior to the start of the enzymatic reaction by the addition of HPPA substrate, the enzyme and test compound (inhibitor) were incubated together for 3 minutes.
In cases where the effects of several concentrations of an inhibitor were investigated, an IC50 value (the half-maximal inhibitory concentration of test compound) was determined by plotting the data using a non-linear regression curve-fitting program using a GraphPad Prism™ software package.
Data are expressed as mean values from two experiments except where indicated. Where appropriate the values are expressed as the mean±standard deviation.

plasma tyrosine = experiment: Plasma tyrosine concentration kinetic profile in the rat following a single oral dose; type: in vivo; settings: for Plasma tyrosine: single oral dose 2.0 mg/kg; for Plasma Tyrosine Concentration: single oral dose 10 mg/kg
Method: The plasma tyrosine concentration kinetic profile in the rat was determined for each of the HPPD inhibitor test compounds by administering a single oral dose to 10-12 week old male Sprague Dawley rats. Compounds 3.20, 3.13 and 3.26 were dosed at 2 mg/kg in 1% carboxymethylcellulose (1% CMC) vehicle, whilst compounds 3.22, 3.12, 3.15, 3.18, 3.23, 3.21, 3.11, 3.01, 3.24 and 3.25 were administered at 10 mg/kg in 1% CMC.
Blood samples to determine plasma tyrosine concentration were obtained at frequent intervals during the first 24 hours post-dose, and at 48 hours post-dose. These samples were either compared with blood samples obtained from control rats which only received an equivalent volume of the vehicle, 1% CMC, or by comparison with control samples obtained from the rats 1 hour prior to dosing with test the compound. Prior to the analysis of the samples for plasma tyrosine concentration, the blood samples were centrifuged at 1800 g for 10 minutes at 4° C. The plasma was collected and then filtered through a centrifugal micro partition device at 1500 g for 30 minutes at 4° C. The filtered plasma was then divided into two aliquots and stored frozen at −70° C. for subsequent gradient reverse phase high performance liquid chromatographic (HPLC) analysis of plasma tyrosine. Aliquots of plasma were analysed by HPLC using a 250×4.6 mm Hichrom S5ODS2 column at 30° C., eluted with a mobile phase of water/acetonitrile/trifluoroacetic acid (950:50:2 v/v/v) at a flow rate of 1 ml/min. Detection was by a diode array detector at 274 nm. Appropriate tyrosine standards were run alongside the samples for calibration purposes.
The plasma tyrosine concentration kinetic profile for the test compounds 3.20, 3.13 and 3.26 are shown at the time points 1, 2, 4, 6, 12, 24 and 48 hours post-dose in Table 1.1. The data shown are the mean±standard deviation (n=4), except for the 6 hour time point where the data were obtained from n=3 rats for the control and 3.26 groups.
The plasma tyrosine concentration kinetic profile for the test compounds 3.22, 3.12, 3.15, 3.18, 3.23, 3.21, 3.11, 3.01, 3.24 and 3.25 are shown at the time points −1 hour (pre-dose control), 1, 3, 6, 12, 24 and 48 hours post-dose, in Tables 1.2 and 1.3. The data shown are the mean±standard deviation (n=3), except for the −1 hour time point with compound 3.23, where n=2 (Table 1.2), and for the 3 and 6 hour time points with compound 3.21, where n=2 (Table 1.3).

[2] = test system: AMPT rat model of Parkinson's disease; experiment: AMPT rat model of Parkinson's disease (catalepsy descent latency and centre rearing counts); type: in vivo; settings: for Mean Catalepsy Descent Latency (s) / Mean Centre Rearing Counts: 8 h post AMPT; for reversal of AMPT induced catalepsy (in words) / reversal of AMPT induced deficits in mean centre rearing counts (in words): single oral dose 10 mg/kg, -16 or -1 hours
Method: AMPT is a competitive inhibitor of tyrosine hydroxylase. Rats dosed with >150 mg/kg AMPT develop parkinsonian-like behavior and locomotor deficits (e.g. catalepsy and reduced rearing activity) within hours owing to the depletion of striatal dopamine concentration as a consequence of the reduced flux through the dopamine synthetic pathway. […] Indian J. Exp. Biol. 41, 1264-1268).
The effect was compared with appropriate vehicle control groups (oral vehicle was 1% carboxymethylcellulose; CMC) and a group that received a 150 mg/kg i.p. dose of L-dopa.
Eight hours after AMPT (or vehicle) administration rats were assessed for catalepsy and centre rearing activity. During the catalepsy test, the front paws of the rat were placed over a horizontal bar suspended 9 cm off the floor. The time taken for the rat to get off the bar (descent latency) was measured with a maximum time of 3 minutes being allowed. Centre rearing counts were determined over a 1 hour monitoring period using an automated activity monitoring system (AM1053). This system used an array of infrared beams to determine the activity and mobility of each animal. Each cage had 48 infrared beams, 24 on each of two levels arranged in an 8×16, 1″ (25.4 mm) pitch grid. The lower grid measured horizontal x, y movement, whilst the upper grid measured rearing movement. The activity detector operated by counting the number of times the beams changed from unbroken to broken and then incrementing the relevant counters.
These groups were compared to a positive control group (6) dosed with 225 mg/kg AMPT i.p.+150 mg/kg L-dopa i.p. 6.5 hour post AMPT dose. L-dopa was administered with a peripheral dopa decarboxylase inhibitor (benserazide), at 100 mg/kg i.p.
In a second and third series of experiments, the efficacy of eight other HPPD inhibitor test compounds were assessed in the AMPT rat model of Parkinson's disease (Tables 1.5 & 1.6). Male Sprague-Dawley rats (300-350 g) were administered a single i.p. dose of 225 mg/kg AMPT and a single oral dose of 10 mg/kg of the HPPD inhibitor test compound was administered either 1 or 16 hours prior to (−16 or −1 hours) AMPT administration. Behavioral assessment (catalepsy and centre rearing counts) was conducted 8 hours post AMPT administration. The effect was compared with a vehicle control group and a group receiving AMPT alone.

[3] = Table 1.6: 225 mg/kg AMPT i.p. + 10 mg/kg oral at -16 hours
[4] = 100 nM test compound, rat liver cytosol, 3 min pre-incubation
[5] = Table 1.5: 225 mg/kg AMPT i.p. + 10 mg/kg oral at -16 hours
[6] = Table 1.6: 225 mg/kg AMPT i.p. + 10 mg/kg oral at -1 hour

SMILES	inhibition at 0.1 µM [1] [%]	reversal of AMPT induced catalepsy (in words) ([2]; 10 mg/kg)	inhibition at 0.1 µM [1, 4] [%]	Plasma Tyrosine Concentration (plasma tyrosine; 1 hour post-dose) [nmol/mL]	Plasma Tyrosine Concentration (plasma tyrosine; 3 hours post-dose) [nmol/mL]	Plasma Tyrosine Concentration (plasma tyrosine; 6 hours post-dose) [nmol/mL]	Plasma Tyrosine Concentration (plasma tyrosine; 12 hours post-dose) [nmol/mL]	Plasma Tyrosine Concentration (plasma tyrosine; 24 hours post-dose) [nmol/mL]	Plasma Tyrosine Concentration (plasma tyrosine; 48 hours post-dose) [nmol/mL]	Mean Centre Rearing Counts [2, 5]	reversal of AMPT induced deficits in mean centre rearing counts (in words) [2]	further results
Cc1c(C(=O)C2C=NN(C)C2=O)ccc(S(C)(=O)=O)c1C1=NOCC1 (stereo not drawn) [Compound 3.20]	57	substantially reversed; also recorded: effective in reversing										Plasma tyrosine (plasma tyrosine; 1 hour post-dose): 169 ± 13.6 nmol/mL; Plasma tyrosine (plasma tyrosine; 2 hours post-dose): 231 ± 30.2 nmol/mL; Plasma tyrosine (plasma tyrosine; 4 hours post-dose): 353 ± 50.9 nmol/mL; Plasma tyrosine (plasma tyrosine; 6 hours post-dose): 479 ± 40.0 nmol/mL; Plasma tyrosine (plasma tyrosine; 12 hours post-dose): 796 ± 44.3 nmol/mL; Plasma tyrosine (plasma tyrosine; 24 hours post-dose): 745 ± 171.8 nmol/mL; Plasma tyrosine (plasma tyrosine; 48 hours post-dose): 96 ± 1.7 nmol/mL; Mean Catalepsy Descent Latency (s) [2, 3]: 8 ± 1.8^+++ s; Mean Centre Rearing Counts [2, 3]: 409 ± 50^+++ counts; reversal of AMPT induced deficits in mean centre rearing counts (in words) ([2]; 10 mg/kg): reached statistical significance; also recorded: either partially or completely reversing
CC1(C)C(=O)C(C(=O)c2ccc(C(F)(F)F)cc2[N+](=O)[O-])C(=O)C(C)(C)C1=O [Compound 3.23]		substantially reversed; also recorded: effective in reversing	24	173 ± 22.0	307 ± 28.0	502 ± 37.5	1041 ± 88.5	1835 ± 444.1	299 ± 202.8	273 ± 63 counts	either partially or completely reversing	Mean Catalepsy Descent Latency (s) [2, 5]: 10 ± 3.0^+++ s
Cc1nc(C(F)(F)F)ccc1C(=O)C1C(=O)C2CCC(C2)C1=O.[K+] (stereo not drawn) [Compound 3.24]	5	substantially reversed; also recorded: effective in reversing		184 ± 27.8	313 ± 49.9	548 ± 83.9	1008 ± 85.2	2110 ± 111.1	2571 ± 167.7	189 ± 36 counts	either partially or completely reversing	inhibition at 0.3 µM [1]: 34%; Mean Catalepsy Descent Latency (s) [2, 5]: 15 ± 8.9^+++ s
CS(=O)(=O)c1cc(C(F)(F)F)ccc1C(=O)C(C#N)C(=O)C1CC1 (stereo not drawn) [Compound 3.15]		substantially reversed; also recorded: effective in reversing	37	177 ± 21.7	299 ± 18.8	458 ± 29.4	671 ± 119.7	228 ± 76.6	117 ± 11.3		either partially or completely reversing	Mean Catalepsy Descent Latency (s) [2, 6]: 23 ± 8.0^+++ s; Mean Centre Rearing Counts [2, 6]: 199 ± 54 counts
CS(=O)(=O)c1ccc(C(=O)C2C(=O)CCCC2=O)c(Cl)c1COCC(F)(F)F [Compound 3.18]	31	substantially reversed; also recorded: effective in reversing		177 ± 3.5	303 ± 3.9	504 ± 29.4	1027 ± 62.7	1987 ± 133.0	313 ± 216.6	359 ± 116^+ counts		reversal of AMPT induced deficits in mean centre rearing counts (in words) ([2]; 10 mg/kg): reached statistical significance; also recorded: either partially or completely reversing
CCn1ncc(C(=O)c2ccc(S(C)(=O)=O)c(OCCOC)c2Cl)c1O [Compound 3.12]		substantially reversed; also recorded: effective in reversing	40	168 ± 20.1	289 ± 35.6	451 ± 72.7	969 ± 65.2	1543 ± 91.1	114 ± 8.0		either partially or completely reversing	Mean Catalepsy Descent Latency (s) [2, 3]: 16 ± 4.2^+++ s; Mean Centre Rearing Counts [2, 3]: 211 ± 65 counts
CS(=O)(=O)c1cc(C(F)(F)F)ccc1C(=O)c1cnoc1C1CC1 [Compound 3.01]	8	substantially reversed; also recorded: effective in reversing		160 ± 7.4	276 ± 12.9	445 ± 32.9	666 ± 16.1	264 ± 23.5	110 ± 23.9		either partially or completely reversing	inhibition at 0.3 µM [1]: 36%; Mean Centre Rearing Counts [2, 6]: 88 ± 26 counts
